Data published in patent US20080095834A1, “Mitochondriotropic Phospholipid Vesicles” (priority 2005, published 2008).

Tested on: COLO205 colon cancer cells
Assay: Apoptotic DNA laddering, DNA gel separation analysis
Type: cell-based
Details: 18 hrs, ceramide 25 μM
Protocol: FIG. 8 represents a micrograph of DNA gel separation analysis of COLO205 cells incubated with C6 ceramide-loaded mitochondriotropic liposomes according to the invention for 18 hrs, followed by extraction of their DNA. The concentration of ceramide in all samples was 25 μM. Lane A—DNA marker; lane B—untreated control; lane C—ceramide-loaded plain liposomes; lane D—ceramide loaded STPP liposomes according to the invention; lane E—free ceramide. Black arrows indicate the apoptotic DNA ladder. Total amount of DNA was identical in all lanes; and
FIG. 8 represents a micrograph of DNA gel separation analysis of cells of the colon cancer cell line COLO205 incubated with C6 ceramide-loaded mitochondriotropic liposomes according to the invention for 18 hrs, followed by extraction of their DNA. The concentration of ceramide in all samples was 25 μM. Lane A—DNA marker; lane B—untreated control; lane C—ceramide-loaded plain liposomes; lane D—ceramide loaded STPP liposomes according to the invention; lane E—free ceramide. Black arrows indicate the apoptotic DNA ladder. The total amount of DNA was identical in all lanes.

Structure (SMILES): CCCCCCCCCCCCC/C=C/[C@@H](O)[C@H](CO)NC(=O)CCCCC [free ceramide, C6 ceramide]
- DNA laddering typical of apoptosis: nor cells treated with free ceramide (Lane E, FIG. 8) showed the DNA laddering typical of apoptosis
